In patent US9406887B2, “Solution, organic semiconductor material, organic semiconductor film, electronic device and electronic equipment” (RICOH COMPANY, LTD., priority 2013, dated 2016):

Tests used:
[1] = Solubility of the compound in an organic solvent (saturated solution at 25° C. after reflux); format: physicochemical; conditions: cooled to 25° C. after reflux; for solubility in CHCl3: chloroform
Protocol: After the compound was added to […] of an organic solvent such as toluene, THF and chloroform until insoluble residue remained, the mixture was stirred for 10 min while the organic solvent was refluxed with heat. Next, after the mixture was cooled to have a temperature of 25° C., it was stirred for 1 hr. Further, after quietly put for 16 hrs, the top clear layer of the mixture was filtered through a PTFE filter having a hole diameter of 0.2 μm to prepare a saturated solution. Next, the solution was dried under reduced pressure and the solubility of the compound in an organic solvent was measured. The evaluation standard of the solubility of the compound in an organic solvent is as follows.

[2] = Weight variation (TG) on heating, thermal analyzer EXSTRA6200; format: physicochemical; conditions: heated to 250° C. at 20° C./min, nitrogen atmosphere
Protocol: After 50 mg (0.10 mmol) of the compound having the formula (1-1) were placed in an aluminum pan, they were heated to have a temperature of 250° C. at 20° C./min and weight variation (TG) thereof was measured using a thermal analyzer EXSTRA6200 from Seiko Instruments, Inc. in a nitrogen atmosphere. Thus, 29 mg (yield rate quant.) of a dark purple solid compound having the formula (2-1) was obtained.

Row | solubility in THF [1] | solubility in CHCl3 [1] | solubility in Toluene [1] | weight reduction (TG) [2] [%] | SMILES
1 | Poor (less than 0.005% by weight) | Poor (less than 0.005% by weight) | Poor (less than 0.005% by weight) | – | O=C1NC(c2cccs2)=C2C(=O)NC(c3cccs3)=C12 [formula (2-1)]
2 | Excellent (not less than 0.5% by weight) | Excellent (not less than 0.5% by weight) | Excellent (not less than 0.5% by weight) | 23.1 | CCCCCCOc1ccc(-c2ccc(C3=C4C(=O)N(C(=O)OC(C)(C)C)C(c5ccc(-c6ccc(OCCCCCC)cc6)s5)=C4C(=O)N3C(=O)OC(C)(C)C)s2)cc1 [formula (1-18)]

More lines, now with the values behind:

Row | SMILES | solubility in THF [1] | solubility in CHCl3 [1] | solubility in Toluene [1] | weight reduction (TG) [2] [%]
3 | CC(C)(C)OC(=O)N1C(=O)C2=C(c3ccc(Br)s3)N(C(=O)OC(C)(C)C)C(=O)C2=C1c1ccc(Br)s1 [formula (1-4)] | Excellent (not less than 0.5% by weight) | Excellent (not less than 0.5% by weight) | Good (not less than 0.1% and less than 0.5% by weight) | 31.6
4 | CCCCCCc1csc(-c2ccc(C3=C4C(=O)N(C(=O)OC(C)(C)C)C(c5ccc(-c6cc(CCCCCC)cs6)s5)=C4C(=O)N3C(=O)OC(C)(C)C)s2)c1 [formula (1-17)] | Excellent (not less than 0.5% by weight) | Excellent (not less than 0.5% by weight) | Excellent (not less than 0.5% by weight) | 23.1
5 | CCCCCCc1ccc(-c2ccc(-c3ccc(C4=C5C(=O)N(C(=O)OC(C)(C)C)C(c6ccc(-c7ccc(-c8ccc(CCCCCC)s8)s7)s6)=C5C(=O)N4C(=O)OC(C)(C)C)s3)s2)s1 [formula (1-16)] | Excellent (not less than 0.5% by weight) | Excellent (not less than 0.5% by weight) | Excellent (not less than 0.5% by weight) | 19.8
6 | CCCCCCc1ccc(-c2ccc(C3=C4C(=O)N(C(=O)OC(C)(C)C)C(c5ccc(-c6ccc(CCCCCC)s6)s5)=C4C(=O)N3C(=O)OC(C)(C)C)s2)s1 [formula (1-12)] | Good (not less than 0.1% and less than 0.5% by weight) | Excellent (not less than 0.5% by weight) | Excellent (not less than 0.5% by weight) | 23.8
7 | CCCCCCCCCCCCOc1cc(-c2ccc(-c3ccc(-c4ccc(C5=C6C(=O)N(C(=O)OC(C)(C)C)C(c7ccc(-c8ccc(-c9ccc(-c%10cc(OCCCCCCCCCCCC)c(OCCCCCCCCCCCC)c(OCCCCCCCCCCCC)c%10)s9)s8)s7)=C6C(=O)N5C(=O)OC(C)(C)C)s4)s3)s2)cc(OCCCCCCCCCCCC)c1OCCCCCCCCCCCC [formula (1-27)] | Good (not less than 0.1% and less than 0.5% by weight) | Excellent (not less than 0.5% by weight) | Good (not less than 0.1% and less than 0.5% by weight) | 9.4
8 | CC(C)(C)OC(=O)N1C(=O)C2=C(c3cccs3)N(C(=O)OC(C)(C)C)C(=O)C2=C1c1cccs1 [formula (1-1)] | Excellent (not less than 0.5% by weight) | Excellent (not less than 0.5% by weight) | Excellent (not less than 0.5% by weight) | 34.6
9 | CCCCCCCCCCCCOc1cc(-c2ccc(-c3ccc(C4=C5C(=O)N(C(=O)OC(C)(C)C)C(c6ccc(-c7ccc(-c8cc(OCCCCCCCCCCCC)c(OCCCCCCCCCCCC)c(OCCCCCCCCCCCC)c8)s7)s6)=C5C(=O)N4C(=O)OC(C)(C)C)s3)s2)cc(OCCCCCCCCCCCC)c1OCCCCCCCCCCCC [formula (1-25)] | Excellent (not less than 0.5% by weight) | Excellent (not less than 0.5% by weight) | Excellent (not less than 0.5% by weight) | 10.3
